Data: paper PMC12376128, “In vitro and In Vivo Drug Metabolism Analysis of BPI-460372 - A Covalent TEAD1/3/4 Inhibitor” (Current Drug Metabolism, 2025)

Key:
[1] = molecular target: T1, CYP2D6 (Homo sapiens, UniProt P10635); experiment: Metabolic stability in recombinant human CYP isoenzymes; format: in vitro ADME; design: purchased Cypex Ltd. (Dundee, UK); settings: in 5 min
Protocol: (§1) To identify the specific isoform that participates in the metabolism of BPI-460372, 1 µM BPI-460372 or positive control substrates were mixed with recombinant human CYP1A2, 2B6, 2C8, 2C9, 2C19, 2D6 or 3A4 (100 pmol P450·mL^-1), and the reaction was started by the addition of NADPH (1 mM final concentration) after 5-minute preincubation at 37°C. Aliquots were maintained in acetonitrile containing IS at different time points at 0 min, 5 min, 10 min, 20 min, 30 min, and 60 min. All incubations were performed in triplicate, and the concentration of the supernatant was determined by LC-MS/MS.
(§2) A substrate depletion approach was employed to determine the intrinsic clearance (CLint (rCYPj)) for each isoform. The contribution of each isoform was estimated using equations 2 and 3. CYPj abundance was evaluated as the abundance (CYPj) of each isoform in HLMs (pmol/mg protein).

[2] = molecular target: T1, CYP2D6; experiment: Metabolic stability in HLMs with or without specific CYP inhibitor (quinidine); format: in vitro ADME; design: HLMs (1 mg protein·mL^-1); tissue BioIVT; host or cells: pooled human liver microsomes; settings: HLMs 1 mg protein/mL, substrate 1 μM, quinidine 20 µM
Protocol: (§3) Before starting the experiments, the HLMs were thawed gently on ice. Metabolic stability incubations were performed at 37 °C. The incubations contained 100 mM phosphate buffer saline (PBS, pH 7.4), HLMs (1 mg protein·mL^-1), dimethyl sulfoxide (DMSO, blank control) or a selective CYP inhibitor, and BPI-460372 or positive control substrates (final incubation concentration, 1 μM). The incubation process started with the addition of NADPH (1 mM final concentration) after a 5-minute preincubation period. The chemical inhibitors were as follows: a-naphthoflavone (2 µM) for CYP1A2, ticlopidine (20 µM) for 2B6, quercetin (20 µM) for CYP2C8, sulfaphenazole (20 µM) for CYP2C9, ticlopidine (200 µM) for CYP2C19, quinidine (20 µM) for CYP2D6, and ketoconazole (20 µM) for CYP3A [9]. Aliquots were maintained in acetonitrile containing internal standard (IS) at various time points, such as 0 min, 5 min, 10 min, 20 min, 30 min, and 60 min. All incubations were performed in triplicate, and the concentration in the supernatant was determined by liquid chromatography-tandem mass spectrometry (LC-MS/MS).
(§4) The elimination rate constant k (min^-1) was obtained by linear regression from the natural logarithm of the […] of the parent drug and the incubation time. The inhibition rate was calculated using equation 1 [10]: […]

[3] = molecular target: T2, CYP2C9 (Homo sapiens, UniProt P11712); experiment: Metabolic stability in recombinant human CYP isoenzymes; format: in vitro ADME; design: purchased Cypex Ltd. (Dundee, UK); settings: rCYP2C9, 1 µM
T2 sequence (P11712 whole entry): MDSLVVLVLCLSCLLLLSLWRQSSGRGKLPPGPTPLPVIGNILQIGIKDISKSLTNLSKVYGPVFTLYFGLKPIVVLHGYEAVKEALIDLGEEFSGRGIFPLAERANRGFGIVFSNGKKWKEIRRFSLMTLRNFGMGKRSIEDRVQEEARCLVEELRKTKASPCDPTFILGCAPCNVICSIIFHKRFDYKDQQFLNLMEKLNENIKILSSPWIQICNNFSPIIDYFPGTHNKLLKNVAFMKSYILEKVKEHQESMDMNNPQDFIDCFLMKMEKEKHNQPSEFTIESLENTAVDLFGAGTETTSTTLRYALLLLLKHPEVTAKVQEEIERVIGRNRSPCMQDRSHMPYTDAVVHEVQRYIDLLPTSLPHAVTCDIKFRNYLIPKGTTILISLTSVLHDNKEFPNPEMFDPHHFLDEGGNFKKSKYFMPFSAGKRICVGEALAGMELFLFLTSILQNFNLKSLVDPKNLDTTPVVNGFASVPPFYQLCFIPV
Protocol: as §1, §2

[4] = molecular target: T2, CYP2C9; experiment: Metabolic stability in HLMs with or without specific CYP inhibitor (sulfaphenazole); format: in vitro ADME; design: HLMs (1 mg protein·mL^-1); tissue BioIVT; host or cells: pooled human liver microsomes; settings: 1 µM, pH 7.4
Protocol: as §3, §4

[5] = test system: monkey hepatocytes; experiment: Metabolism and metabolite formation in hepatocytes; format: in vitro ADME, cynomolgus monkey; settings: cynomolgus monkey hepatocytes, 10 µM BPI-460372, 4 h incubation
Text: (§5) All the samples were duplicates.

[6] = test system: dog hepatocytes; experiment: Metabolism and metabolite formation in hepatocytes; format: in vitro ADME, beagle dog; settings: beagle dog hepatocytes, 10 µM BPI-460372, 4 h incubation
Text: as §5

[7] = test system: rat hepatocytes; experiment: Metabolism and metabolite formation in hepatocytes; format: in vitro ADME, SD rat; settings: SD rat hepatocytes, 10 µM BPI-460372, 4 h incubation
Text: as §5

[8] = test system: mouse hepatocytes; experiment: Metabolism and metabolite formation in hepatocytes; format: in vitro ADME, ICR mouse; settings: ICR mouse hepatocytes, 10 µM BPI-460372, 4 h incubation
Text: as §5

[9] = Metabolite identification in rat plasma, urine, feces and bile; format: in vivo, SD rats; settings: for Relative abundance of MS peak areas, Rat Bile 0-48 h / Relative abundance of MS peak areas, Rat Feces 0-48 h / Relative abundance of MS peak areas, Rat Urine 0-48 h: oral 6 mg/kg BPI-460372, average of male and female pooled samples; for Relative abundance of MS peak areas, Rat Plasma 0-24 h: oral 12 mg/kg BPI-460372, average of male and female pooled samples
Protocol: (§6) The plasma samples were acquired from SD rats (n=6, 3 female and 3 male) and beagle dogs (n=6, 3 female and 3 male) after administration of 12 mg/kg and 8 mg/kg of BPI-460372, respectively. The rat urine, feces, and bile samples were acquired in SD rats after administration of 6 mg/kg of BPI-460372.
(§7) Equal volume from each rat was pooled together to get 1 male and 1 female 0-24 h plasma samples. An equal percentage by volume of individual urine sample (0-8, 8-24, and 24-48 h) from 3 female and 3 male rats was pooled by time interval across rats, respectively, resulting in two pooled urine samples (1 male and 1 female). An equal percentage by weight of individual feces samples (0-8, 8-24, and 24-48 h) was pooled by time interval across female and male rats, resulting in two pooled fecal samples. An equal percentage by volume of individual bile samples (0-4, 4-8, 8-24, and 24-48 h) was pooled by time interval across female and male rats, resulting in two pooled bile samples. […] Equal volumes from 3 female and 3 male rats were pooled together to get two 0-48 h plasma samples. For blank samples of plasma, urine, and bile, equal volume was pooled across subjects. For a blank sample of feces, equal weight was pooled across rats.
(§8) The pooled plasma, feces, and bile samples were extracted by adding 3-fold volume of acetonitrile, and the mixture was vortexed (1 min) and sonicated (1 min) before centrifugation (7220 g, 5 min). The pooled urine samples were centrifuged (7220 g, 5 min). Then the supernatant was transferred into a clean tube and evaporated to dryness under the nitrogen stream. The residues were redissolved with an appropriate volume of acetonitrile/water (20: 80, v: v). After centrifugation, the redissolved solution was transferred into an HPLC vial for UHPLC-Orbitrap-HRMS (15000 g, 10 min, 4°C).

[10] = Metabolite identification in dog plasma; format: in vivo, beagle dogs; settings: oral 8 mg/kg BPI-460372, average of male and female pooled samples
Protocol: as §6, §7, §8

[11] = test system: TEAD proteins; experiment: Covalent binding to TEAD proteins (in vitro); settings: in vitro studies
[12] = test system: TEAD palmitoylation; experiment: Inhibition of TEAD palmitoylation (in vitro); format: biochemical; settings: in vitro studies
[13] = test system: human hepatocytes; experiment: Metabolism and metabolite formation in hepatocytes; settings: human hepatocytes, 10 µM BPI-460372, 4 h incubation
[14] = test system: cysteine S-conjugate β-lyase; experiment: Effect of cysteine S-conjugate β-lyase inhibitor AOAA on the metabolism of BPI-460372 (rat urine); settings: for Area ratio in rat urine, mean (%CV): 20 mg/kg BPI-460372 + 100 mg/kg AOAA, once daily 21 days, urine 0-48 h on day 21; for Change of area ratio in rat urine on coadministration with AOAA: 20 mg/kg BPI-460372 with versus without 100 mg/kg AOAA
[15] = test system: CYP3A4; experiment: Metabolic stability in HLMs with or without specific CYP inhibitor (ketoconazole); format: in vitro ADME, human; settings: HLMs 1 mg protein/mL, substrate 1 μM, ketoconazole 20 µM
Protocol: as §3, §4

[16] = molecular target: T3, recombinant human CYP3A4 (Homo sapiens, UniProt P08684); experiment: Metabolic stability in recombinant human CYP isoenzymes; format: in vitro ADME; settings: rCYP3A4, 1 µM
T3 construct: purchased Cypex Ltd. (Dundee, UK)
T3 sequence (P08684 whole entry): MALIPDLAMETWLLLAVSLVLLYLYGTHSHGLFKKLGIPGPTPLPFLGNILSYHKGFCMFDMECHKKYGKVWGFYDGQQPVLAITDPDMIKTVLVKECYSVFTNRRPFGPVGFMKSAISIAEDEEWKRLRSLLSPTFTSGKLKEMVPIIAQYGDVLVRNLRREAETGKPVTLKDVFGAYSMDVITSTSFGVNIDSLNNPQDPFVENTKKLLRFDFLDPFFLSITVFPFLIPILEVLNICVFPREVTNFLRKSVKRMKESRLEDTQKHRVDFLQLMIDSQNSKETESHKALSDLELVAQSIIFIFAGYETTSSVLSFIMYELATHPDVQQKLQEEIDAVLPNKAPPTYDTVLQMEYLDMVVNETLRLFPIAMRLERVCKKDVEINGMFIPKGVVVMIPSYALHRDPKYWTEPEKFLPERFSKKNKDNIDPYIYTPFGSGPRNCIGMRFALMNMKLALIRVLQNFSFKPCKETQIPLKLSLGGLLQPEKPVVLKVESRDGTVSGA
Protocol: as §1, §2

[17] = test system: CYP2C8; experiment: Metabolic stability in HLMs with or without specific CYP inhibitor (quercetin); format: in vitro ADME, human; settings: HLMs 1 mg protein/mL, substrate 1 μM, quercetin 20 µM
Protocol: as §3, §4

[18] = molecular target: T4, CYP1A2 (Homo sapiens, UniProt P05177); experiment: Metabolic stability in HLMs with or without specific CYP inhibitor (α-naphthoflavone); format: in vitro ADME; design: HLMs (1 mg protein·mL^-1); tissue BioIVT; host or cells: pooled human liver microsomes; settings: HLMs 1 mg protein/mL, substrate 1 μM, α-naphthoflavone 2 µM
T4 sequence (P05177 1-516): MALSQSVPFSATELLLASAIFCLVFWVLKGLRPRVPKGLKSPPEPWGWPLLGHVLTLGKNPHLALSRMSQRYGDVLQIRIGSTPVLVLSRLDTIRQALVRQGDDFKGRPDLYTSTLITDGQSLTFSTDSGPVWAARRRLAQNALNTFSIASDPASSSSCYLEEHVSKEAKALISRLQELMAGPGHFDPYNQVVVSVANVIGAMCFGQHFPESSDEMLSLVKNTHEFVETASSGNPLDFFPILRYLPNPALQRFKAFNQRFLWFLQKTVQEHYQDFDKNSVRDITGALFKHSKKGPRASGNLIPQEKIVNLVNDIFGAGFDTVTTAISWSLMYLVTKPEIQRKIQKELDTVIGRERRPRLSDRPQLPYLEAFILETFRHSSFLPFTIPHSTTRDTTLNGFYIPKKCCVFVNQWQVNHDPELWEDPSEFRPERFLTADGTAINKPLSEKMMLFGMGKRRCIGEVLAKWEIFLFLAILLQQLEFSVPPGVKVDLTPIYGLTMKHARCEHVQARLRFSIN
Protocol: as §3, §4

T1 sequence (P10635 whole entry, canonical isoform): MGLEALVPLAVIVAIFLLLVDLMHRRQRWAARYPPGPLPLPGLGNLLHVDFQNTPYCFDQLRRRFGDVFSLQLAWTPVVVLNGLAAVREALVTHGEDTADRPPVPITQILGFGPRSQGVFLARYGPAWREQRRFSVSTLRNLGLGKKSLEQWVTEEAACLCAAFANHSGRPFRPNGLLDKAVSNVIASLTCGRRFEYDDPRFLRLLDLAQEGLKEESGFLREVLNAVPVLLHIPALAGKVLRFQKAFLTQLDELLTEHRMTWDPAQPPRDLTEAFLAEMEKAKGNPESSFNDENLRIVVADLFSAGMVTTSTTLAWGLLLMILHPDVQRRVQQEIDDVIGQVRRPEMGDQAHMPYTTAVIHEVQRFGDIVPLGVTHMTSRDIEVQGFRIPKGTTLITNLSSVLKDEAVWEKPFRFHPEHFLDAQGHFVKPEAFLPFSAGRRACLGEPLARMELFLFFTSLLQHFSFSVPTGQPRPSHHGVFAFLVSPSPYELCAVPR

SMILES | UV (314 nm) Peak Areas Relative Abundance [5] | UV (314 nm) Peak Areas Relative Abundance [6] | UV (314 nm) Peak Areas Relative Abundance [7] | UV (314 nm) Peak Areas Relative Abundance [8] | Relative abundance of MS peak areas, Rat Bile 0-48 h [9] | Relative abundance of MS peak areas, Rat Feces 0-48 h [9] | Relative abundance of MS peak areas, Rat Urine 0-48 h [9] | Relative abundance of MS peak areas, Rat Plasma 0-24 h [9] | Relative abundance of MS peak areas, Dog Plasma 0-48 h [10] | UV (314 nm) Peak Areas Relative Abundance [13] | Area ratio in rat urine, mean (%CV) [14] | other results
COc1ccc2c(c1)[C@]13CCCC[C@@H]1[C@H](C2)N(C)CC3 [Dextromethorphan, reference compound] | – | – | – | – | – | – | – | – | – | – | – | Extent of metabolism in recombinant human CYP2D6 [1]: completely metabolized; Inhibition Rate [2]: 87.1%
O=C(O)Cc1ccccc1Nc1c(Cl)cccc1Cl [Diclofenac, diclofenac, reference compound] | – | – | – | – | – | – | – | – | – | – | – | CLint (rCYPj) [3]: 3.53 µL/min/pmol; Inhibition Rate [4]: 98.2%
CC(O)C(=O)N1CC(n2c(=O)n(-c3ccc(C(F)(F)F)cc3)c3nccnc32)C1 (stereo not drawn) [M407 (BPI-460430)] | 3.61% | + | 2.75% | 1.39% | 0.72% | 5.94% | 1.02% | 16.39% | 6.23% | + | – | Covalent binding to TEAD proteins [11]: do not covalently bind; Activity: inhibition of TEAD palmitoylation [12]: inactive
O=C(C(O)CO)N1CC(n2c(=O)n(-c3ccc(C(F)(F)F)cc3)c3nccnc32)C1 (stereo not drawn) [M423 (BPI-460456)] | 2.01% | + | + | + | 0.58% | 9.07% | 17.63% | 2.71% | 40.81% | 2.36% | 19.0 (57) | Covalent binding to TEAD proteins [11]: do not covalently bind; Activity: inhibition of TEAD palmitoylation [12]: inactive
CSCC(O)C(=O)N1CC(n2c(=O)n(-c3ccc(C(F)(F)F)cc3)c3nccnc32)C1 (stereo not drawn) [M453] | – | – | – | – | – | 1.57% | 17.25% | 0.05% | 3.58% | – | 0.23 (23) | Change of area ratio in rat urine on coadministration with AOAA [14]: reduced
NC(CSCC(F)C(=O)N1CC(n2c(=O)n(-c3ccc(C(F)(F)F)cc3)c3nccnc32)C1)C(=O)O (stereo not drawn) [M528] | 3.01% | 22.65% | 18.4% | 24.76% | 43.88% | 1.61% | 0.69% | 1.53% | 7.65% | 3.01% | 0.12 (37) | Change of area ratio in rat urine on coadministration with AOAA [14]: reduced
Cc1ncc2n1-c1ccc(Cl)cc1C(c1ccccc1F)=NC2 [Midazolam, midazolam, reference compound] | – | – | – | – | – | – | – | – | – | – | – | Inhibition Rate [15]: 99.7%; CLint (rCYPj) [16]: 1.93 µL/min/pmol
CC(=O)O[C@H]1C(=O)[C@@]2(C)[C@H]([C@H](OC(=O)c3ccccc3)[C@]3(O)C[C@H](OC(=O)[C@H](O)[C@@H](NC(=O)c4ccccc4)c4ccccc4)C(C)=C1C3(C)C)[C@]1(OC(C)=O)CO[C@@H]1C[C@@H]2O [Paclitaxel, reference compound] | – | – | – | – | – | – | – | – | – | – | – | Inhibition Rate [17]: 78.2%
CCOc1ccc(NC(C)=O)cc1 [Phenacetin, phenacetin, reference compound] | – | – | – | – | – | – | – | – | – | – | – | Inhibition Rate [18]: 79.2%
